Results taken from patent US20240174690A1, “ANNULATED 2-AMINO-3-CYANO THIOPHENES AND DERIVATIVES FOR THE TREATMENT OF CANCER” (BOEHRINGER INGELHEIM INTERNATIONAL GMBH, priority 2021, published 2024).

Tested on: Caco-2 cell monolayers
Experiment: Caco-2 assay (permeability PappAB, PappBA, efflux ratio)
Type: in vitro ADME
Details: 10 μM test compound, pH 7.4
Outline: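 Bidirectional permeability (apical-to-basolateral and reverse) through polarized Caco-2 monolayers, BSA 0.25% on each side, 37 °C. Donor and receiver sampled at 0-90 min after 25-30 min preincubation, analysed by HPLC/MS/MS. Apparent permeabilities derived from transfer rate normalised to area and t=0 donor concentration; ER taken as PappBA over PappAB.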

## C[C@H](Oc1cc(-c2ccn(C)n2)nc(-c2onc3c2CCC[C@@]32CCCc3sc(N)c(C#N)c32)n1)[C@@H]1CCCN1C [I-21]
Apical to basolateral
  Caco PappAB: 5.1 ×10⁻⁶ cm/s
Efflux ratio PappBA/PappAB
  Caco ER: 6.8
